Data taken from PubChem BioAssay (NCI).
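The compound was tested at five concentrations on cells cultured in 96-well plates, with a 48-hour exposure period. Here, GI50 denotes the concentration required for 50% inhibition of growth. TGI: total growth inhibition.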

What was measured:
Test in all cases: NCI anticancer screen, dose series, 48 h
[1] = test system: A498 renal
[2] = test system: A549 NSCLC
[3] = test system: EKVX NSCLC
[4] = test system: KM12 colon
[5] = test system: MCF7 breast
[6] = test system: OVCAR-4 ovarian
[7] = test system: SK-MEL-5 melanoma
[8] = test system: TK-10 renal
[9] = test system: UACC-257 melanoma
[10] = test system: UO-31 renal

With `O=C1c2cccc3c(N4CCN(c5ccc6c7c(cccc57)C(=O)N(CCN5CCNCC5)C6=O)CC4)ccc(c23)C(=O)N1CCN1CCNCC1` the GI50 [1] was 17.3 µM, the TGI [1] was 36.4 µM and the GI50 [2] was 16.3 µM. It also gave a TGI [2] of 35.6 µM, a GI50 [3] of 20.9 µM and a TGI [3] of 47.1 µM. It also gave a GI50 [4] of 12 µM, a TGI [4] of 30.5 µM and a GI50 [5] of 11.2 µM. For the same molecule, the TGI [5] was 41.1 µM, the GI50 [6] was 18.3 µM and the TGI [6] was 42.3 µM. It also gave a GI50 [7] of 16.1 µM, a TGI [7] of 53.4 µM and a GI50 [8] of 14.7 µM. For the same molecule, the TGI [8] was 33.4 µM, the GI50 [9] was 19.5 µM and the TGI [9] was 37.9 µM. It also gave a GI50 [10] of 12.8 µM and a TGI [10] of 33 µM.
`CNC(=O)OCc1nc(S(C)=O)n(C)c1COC(=O)NC` (stereo unspecified) was tested, and the TGI [1] was > 65.6 µM, the TGI [2] was > 46.4 µM and the TGI [3] was > 100 µM. For the same molecule, the TGI [4] was > 100 µM, the TGI [5] was > 100 µM and the TGI [6] was > 71.6 µM. For the same molecule, the TGI [7] was > 46.4 µM, the TGI [8] was > 100 µM and the TGI [9] was > 100 µM. The TGI [10] was > 100 µM.
For `O=C1OC(c2ccc([N+](=O)[O-])cc2)=N/C1=C\c1ccc(O)cc1`, the TGI [1] was > 100 µM, the TGI [2] was > 100 µM and the TGI [3] was > 100 µM. For the same molecule, the TGI [4] was > 100 µM, the TGI [5] was > 100 µM and the TGI [6] was > 100 µM. The TGI [7] was > 100 µM, the TGI [8] was > 100 µM and the TGI [9] was > 100 µM.
For `Cc1ccnc2c1NC(=O)c1cccnc1N2C1CC1`, the GI50 [1] was > 100 µM, the TGI [1] was > 100 µM and the GI50 [2] was > 100 µM. The TGI [2] was > 100 µM, the GI50 [3] was > 100 µM and the TGI [3] was > 100 µM. For the same molecule, the GI50 [4] was > 100 µM, the TGI [4] was > 100 µM and the GI50 [5] was > 100 µM. The TGI [5] was > 100 µM, the GI50 [6] was > 100 µM and the TGI [6] was > 100 µM. The GI50 [7] was > 100 µM, the TGI [7] was > 100 µM and the GI50 [8] was > 100 µM. For the same molecule, the TGI [8] was > 100 µM, the GI50 [9] was > 100 µM and the TGI [9] was > 100 µM. For the same molecule, the GI50 [10] was 48.7 µM and the TGI [10] was > 100 µM.
`Nc1ccc(-c2ccc(-c3nc4ccccc4[nH]3)cc2)cc1` was tested, and the GI50 [1] was 33.6 µM, the TGI [1] was > 100 µM and the TGI [2] was > 95.5 µM. For the same molecule, the GI50 [3] was 1.47 µM, the TGI [3] was > 78.2 µM and the GI50 [4] was < 0.0248 µM. For the same molecule, the TGI [4] was > 66.8 µM, the GI50 [5] was 0.765 µM and the TGI [5] was > 100 µM. The GI50 [6] was 21.1 µM, the TGI [6] was 79.9 µM and the GI50 [7] was 14.9 µM. The TGI [7] was > 100 µM, the TGI [8] was > 100 µM and the GI50 [9] was 1.11 µM. For the same molecule, the TGI [9] was > 100 µM, the GI50 [10] was 10.5 µM and the TGI [10] was > 100 µM.
`C[C@]12CC[C@H]3[C@@H](C[C@@H]4SC(Nc5cccc(F)c5)=N[C@@]45CC(=O)CC[C@]35C)[C@@H]1CCC2=O` gave a GI50 [1] of 2.16 µM, a TGI [1] of 6.77 µM and a GI50 [2] of 2.58 µM. For the same molecule, the TGI [2] was 7.5 µM, the GI50 [3] was 2.5 µM and the TGI [3] was 18.5 µM. It also gave a GI50 [4] of 3 µM, a TGI [4] of 12.4 µM and a GI50 [5] of 1.37 µM. The TGI [5] was 3.28 µM, the GI50 [6] was 2.71 µM and the TGI [6] was > 100 µM. The GI50 [7] was 2.02 µM, the TGI [7] was 4.32 µM and the GI50 [8] was 1.97 µM. For the same molecule, the TGI [8] was 4.15 µM, the GI50 [9] was 5.47 µM and the TGI [9] was 64.5 µM. For the same molecule, the GI50 [10] was 1.67 µM and the TGI [10] was 3.59 µM.
`CS(=O)(=O)c1ccc(C(F)(F)F)cc1NC(=O)Nc1cnc(Oc2ccc(-c3cc(Cl)cnc3N)cc2)nc1` was tested, and the GI50 [1] was 1.78 µM, the TGI [1] was 5.09 µM and the GI50 [2] was 3.07 µM. The TGI [2] was > 32.1 µM, the GI50 [3] was 2.57 µM and the TGI [3] was > 37.5 µM. For the same molecule, the TGI [4] was 3.6 µM, the GI50 [5] was 2.18 µM and the TGI [5] was 7.35 µM. For the same molecule, the GI50 [6] was 2.9 µM, the TGI [6] was 12.4 µM and the GI50 [7] was 1.87 µM. For the same molecule, the TGI [7] was 3.87 µM, the GI50 [8] was 2.21 µM and the TGI [8] was 6.92 µM. For the same molecule, the GI50 [9] was 3.07 µM, the TGI [9] was 11.5 µM and the GI50 [10] was 1.86 µM. The TGI [10] was 6.72 µM.
Work on `O=C(c1cccs1)c1c(C(F)(F)F)n([O-])c2cc(F)c(F)cc2[n+]1=O` yielded a GI50 [1] of 1.46 µM, a TGI [1] of 3.79 µM and a GI50 [2] of 6.16 µM. For the same molecule, the TGI [2] was 12.5 µM, the GI50 [3] was 2.44 µM and the TGI [3] was 6.73 µM. The GI50 [4] was 4.95 µM, the TGI [4] was 8.73 µM and the GI50 [5] was 1.31 µM. The TGI [5] was 15.4 µM, the GI50 [6] was 31.9 µM and the TGI [6] was 50 µM. It also gave a GI50 [7] of 1.9 µM, a TGI [7] of 4.44 µM and a GI50 [8] of 1.36 µM. The TGI [8] was 3.99 µM, the GI50 [9] was 3.11 µM and the TGI [9] was 6.79 µM. It also gave a GI50 [10] of 2.97 µM and a TGI [10] of 5.51 µM.
For `N#CC1=C(N)Oc2c(sc3c(F)cccc23)C1c1ccc([N+](=O)[O-])cc1` (stereo unspecified), the GI50 [1] was 0.0219 µM, the TGI [1] was 0.691 µM and the GI50 [2] was 0.214 µM. The TGI [2] was 2.37 µM, the GI50 [3] was 0.432 µM and the TGI [3] was 2.63 µM. It also gave a GI50 [4] of 0.141 µM, a TGI [4] of 1.27 µM and a GI50 [5] of 0.0367 µM. For the same molecule, the TGI [5] was 1.54 µM, the GI50 [6] was 0.312 µM and the TGI [6] was 1.9 µM. It also gave a GI50 [7] of 0.165 µM, a TGI [7] of 1.24 µM and a GI50 [8] of 0.609 µM. For the same molecule, the TGI [8] was 3.12 µM, the GI50 [9] was 0.863 µM and the TGI [9] was 2.9 µM. The GI50 [10] was 0.197 µM and the TGI [10] was 1.03 µM.
For `N#Cc1c(NC(=O)CCC(=O)O)ccc2ccccc12`, the TGI [1] was > 100 µM, the TGI [2] was > 100 µM and the TGI [3] was > 100 µM. The TGI [4] was > 100 µM, the TGI [5] was > 100 µM and the TGI [6] was > 100 µM. The TGI [7] was > 100 µM, the TGI [8] was > 100 µM and the TGI [9] was > 100 µM. The TGI [10] was > 100 µM.
With `C=CCSc1n[nH]c(-c2cccs2)n1` the GI50 [1] was > 100 µM, the TGI [1] was > 100 µM and the GI50 [2] was > 100 µM. The TGI [2] was > 100 µM, the GI50 [3] was > 100 µM and the TGI [3] was > 100 µM. The GI50 [4] was > 100 µM, the TGI [4] was > 100 µM and the GI50 [5] was > 100 µM. The TGI [5] was > 100 µM, the GI50 [6] was > 100 µM and the TGI [6] was > 100 µM. The GI50 [7] was > 100 µM, the TGI [7] was > 100 µM and the GI50 [8] was > 100 µM. The TGI [8] was > 100 µM, the GI50 [9] was > 100 µM and the TGI [9] was > 100 µM. For the same molecule, the GI50 [10] was > 100 µM and the TGI [10] was > 100 µM.
